Laboratory results published in patent US20230381205A1, “COMPOSITIONS AND METHODS FOR TREATING NEURONAL DISORDERS WITH CANNABINOIDS” (INMED PHARMACEUTICALS INC., priority 2020, published 2023).

Assays:
[1] = system: differentiated SH-SY5Y human neuronal cells; assay: MTT assay: neuroprotection from Staurosporin (STSR) induced cytotoxicity; type: cell-based; details: for neuroprotection against STSR-induced cytotoxicity: 0.5 μM, 1.5 μM and 5 μM with STSR 75 nM, 72 hrs; for neuroprotection against STSR-induced cytotoxicity / Cell Death (%) vs STSR at 75 nM, significance: FIG. 3; for Cell Death (%) vs STSR at 75 nM, significance: 5 μM with STSR 75 nM, compared to STSR-alone, One-Way ANOVA
Description: (§1) Cell Culture and Differentiation: The SH-SY5Y human neuronal cell line was derived from neuroblastoma established from a metastatic bone tumor (patient with neuroblastoma). The cells were maintained in DMEM:F12 culture medium supplemented with 10% FBS and 1% Antibiotic-Antimycotic penicillin/streptomycin (growth medium) at 37° C. in a humidified atmosphere of 5% CO2. To induce neuronal differentiation of SH-SY5Y cells, culture media was replaced by a growth medium containing Retinoic Acid (RA) for 4-5 days at 37° C. in a humidified atmosphere of 5% CO2.
(§2) Compounds and Dosing Formulations: Selected cannabinoids: CBD, CBDA, CBC, CBG, CBGA, CBN, CBND and Δ^9-THC were procured from Cayman Chemicals and TRC. Ethanol (100%) was used as the solvent to prepare 1 and 10 mM stock solutions. Treatment concentrations for CBGA were prepared at 0.5 μM, 1.5 μM, 5 μM, 10 μM, 15 μM, 20 μM. Treatment concentrations for CBD, CBDA, CBC, CBN, CBND and Δ^9-THC were prepared at 0.5, 1.5, 5 and for CBG at 0.5 μM, 1.5 μM, 5 μM, 10 μM, 15 μM. Treatments were prepared directly in the control medium (DMEM:F12+5% FBS+1% Antibiotic-Antimycotic) by using appropriate stock solutions.
(§3) Evaluation of Cytotoxicity and Neuroprotection: Evaluation of cannabinoids neuroprotection and cytotoxicity on differentiated SH-SY5Y human neuronal cells was carried out by MTT (3-(4,5-dimethylthiazol-2-yl)-2,5-diphenyltetrazolium bromide) assay. Initially, cannabinoid cytotoxicity and neuroprotection were evaluated in a primary screen assay without the presence of cytotoxicity inducing insult agents. […] The Retinoic Acid (RA) differentiated SH-SY5Y neuronal cells were seeded onto 96-well plates (10,000 cells/well) in DMEM:F12 complete medium. Cells were differentiated for 4-5 days in the presence of RA.
(§4) MTT Assay: For the MTT assay, differentiated SH-SY5Y neuronal cells were treated with cannabinoids at various concentrations for 72 hrs in the presence of STSR at 75 nM, 100 nM, 150 nM and 200 nM or for 24 hrs in the presence of […] at 5 μM, respectively and processed to determine cytotoxicity. Briefly, 5 mg/mL of methylthiazolyldiphenyl-tetrazolium bromide (Sigma-Aldrich) stock solution was prepared in PBS. Following treatment of SH-SY5Y neuronal cells with cannabinoids for 72 hrs, the cells were incubated with 20 μL of MTT stock solution in 200 μL DMEM for 2 hrs at 37° C. Following subsequent washes with PBS, 200 μL of isopropanol was added to each well. The resulting change in color from dissolving formazan salt was immediately quantified using a spectrophotometer (BMG Labtech) at a wavelength of 570 nm. […] The results are illustrated in FIGS. 1-7.

[2] = system: differentiated SH-SY5Y human neuronal cells; assay: MTT assay: neuroprotection from Aβ1-42 induced cytotoxicity; type: cell-based
Description: as §1, §2, §3, §4

[3] = system: differentiated SH-SY5Y human neuronal cells; assay: MTT assay: cytotoxicity of the substance alone (primary screen, no added insult); type: cell-based; details: for toxicity in primary screen / Cell Death (%) vs Vehicle Control: FIG. 1; for Cell Death (%) vs Vehicle Control: 15 μM, pre-screen
Description: as §1, §2, §3, §4

[4] = system: differentiated SH SY5Y cells treated with Aβ1-42; assay: Receptor antagonist study: reversal of CBGA mediated protection from Aβ toxicity; type: cell-based, human; details: CB2 antagonist at 1.5 μM (lowest concentration tested), with CBGA + Aβ1-42, FIG. 8
Description: FIG. 8 illustrates the effect of a CB2 antagonist has on the reversal of CBGA mediated protection of Aβ toxicity. The CB2 antagonist […] has a more prominent effect on the reversal of CBGA mediated protection. […] CB2 antagonist has significant effect on the reversal of CBGA mediated protection at lower concentration. p<0.0001 for Aβ compared to vehicle control. p<0.0001 for all groups compared to CBGA ([…])+Aβ.

[5] = system: differentiated SH-SY5Y cells; assay: Confocal immunofluorescence of MAP2 and neurite morphology; type: cell-based, human; details: Aβ1-42 at 5 μM alone, FIG. 16
Description: SH-SY5Y cells were differentiated with RA (10 μM) for 5 days as indicated.
Accordingly, the effect of CBGA on the expression of MAP-2 was tested.

[6] = system: BAX; assay: Western blot of BAX (pro-apoptotic marker); type: cell-based, human; details: Aβ1-42 (5 μM) alone, FIG. 9
Description: (§5) For Western blot analysis, control and the treated cells were harvested and lysed in cold lysis buffer (150 mM NaCl, 50 mM Tris-HCl, 1% Triton X-100, 0.1% SDS, 0.5% Sodium deoxycholate, and 1% protease-phosphatase inhibitor mixture). The supernatants were collected and protein concentrations were determined using Bio-Rad protein assay (Bio-Rad Laboratories). Whole cell lysates (10 μg) were subjected to 10% SDS-polyacrylamide electrophoresis and transferred to nitrocellulose membrane. The membranes were blocked with 5% skim milk in TBS-T (Tris-buffered saline with 0.05% Tween-20) for 1 h at RT and blotted overnight in the presence of monoclonal anti-mouse MAP2 (1:1000, Sigma, cat. no. M1406), Tau (1:1000, Invitrogen, cat. no. AHB0042), TUJI (1:5000, BioLegend, cat. no. MMS-435P), BAX (1:1000, Cell signaling, cat. no. 2772) and rabbit polyclonal total and phosphorylated BCL (1:1000, Cell signaling, antibodies #2827 and 2870). The membranes were washed and incubated for 1 h in RT with either horseradish peroxidase (HRP)-conjugated goat anti-mouse (1:2000) or goat anti-rabbit antibodies (1:2000) (Jackson Lab). The membranes were washed and developed using chemiluminescence detection kit (Millipore, Billerica, MA, USA) on Alpha Innotech FluorChem 8800. β-Actin or Vinculin was used as a loading control. […]

[7] = system: BCL2; assay: Western blot of phosphorylated BCL2 (anti-apoptotic marker); type: cell-based, human; details: Aβ1-42 insult alone, FIG. 10
Description: as §5

[8] = system: CB1R; assay: Changes in CB1 receptor expression and translocation; type: cell-based; details: CBGA 5 μM, 10 μM, dose-dependent; FIG. 11
Source text: FIG. 11 Changes in receptor expression.

[9] = system: differentiated SH-SY5Y cells; assay: Neurite length / neuritogenesis in differentiated SH-SY5Y cells; type: cell-based, human; details: 24 hours post treatment, FIG. 14 (B)
Description: FIG. 12 provides representative photomicrographs illustrating CBGA mediated changes in neurite elongation and branching in differentiated SH-SY5Y cells in a dose dependent manner. […] FIG. 12 also provides a histogram showing gradual changes in neurite length following treatment with CBGA.
(§6) FIG. 14 Morphological characterization of CBGA, THC and CBN mediated changes in differentiated SH-SY5Y cells. SH-SY5Y cells were differentiated with RA (10 μM) for 5 days as indicated. (A) Representative confocal photomicrographs showing changes in the cellular distribution of Tuj1 in RA induced differentiated SH-SY5Y cells following treatment with CBGA, THC and CBN. (B) Histogram showing the effect of CBGA, CBN, THC on neurite length.

[10] = system: differentiated SH-SY5Y cells; assay: Immunocytochemistry of TuJ1 and neuronal morphology; type: cell-based, human; details: 5 μM, FIG. 14
Description: as §6

Q: With CCCCCc1cc(O)c(C/C=C(\C)CCC=C(C)C)c(O)c1 [CBG, cannabigerol] as the compound, how does the “protection from STSR induced cytotoxicity” value ([1]; 5 μM, 10 μM and 15 μM with STSR 75 nM, FIG. 6) read?
A: The value was “did not protect”.

Q: What about the “Cell Death (%) vs STSR, significance” value ([1]; 15 μM with STSR 75 nM, p=0.0002, FIG. 6) of the same compound?
A: The value was “statistically significant cytotoxicity”.

Q: And the “protection from Aβ1-42 induced insult” value ([2]; 1.5 μM, 5 μM and 10 μM with Aβ1-42 5 μM, FIG. 7)?
A: The value was “did not protect”.

Q: And the “cytotoxicity with Aβ1-42” value ([2]; 10 μM with Aβ1-42 5 μM, p<0.0001, FIG. 7)?
A: The value was “significant cytotoxicity”.

Q: And the “toxicity in primary screen” value ([3]; 5 μM to 15 μM)?
A: The value was “high levels of toxicity”.

Q: And the “Cell Death (%) vs Vehicle Control” value [3]?
A: Its value is “promote cell death”.

Q: Which results are given for C=C(C)c1ccc(C)cc1-c1c(O)cc(CCCCC)cc1O [CBND]?
A: neuroprotection against STSR-induced cytotoxicity [1]: did not protect; Cell Death (%) vs STSR at 75 nM, significance [1]: statistically significant cytotoxicity; toxicity in primary screen ([3]; 5 μM to 15 μM): high levels of toxicity; Cell Death (%) vs Vehicle Control [3]: promote cell death

Q: For Cc1ccc(Cn2nc(C(=O)N[C@@H]3C(C)(C)[C@@H]4CC[C@@]3(C)C4)cc2-c2ccc(Cl)c(C)c2)cc1 [SRI 14528, 5-(4-chloro-3-methylphenyl)-1-[(4-methylphenyl)methyl]-N-[(1S,2S,4R)-1,3,3-trimethylbicyclo[2.2.1]heptan-2-yl]-1H-pyrazole-3-carboxamide], which “reversal of CBGA mediated neuroprotection” value [4] is on record?
A: Its value is “completely reversed”.

Q: Which results are given for C=C(C)[C@@H]1CCC(C)=C[C@H]1c1c(O)cc(CCCCC)cc1O [CBD, cannabidiol]?
A: neuroprotection against STSR-induced cytotoxicity [1]: did not protect; Cell Death (%) vs STSR at 75 nM, significance [1]: statistically significant cytotoxicity; toxicity in primary screen ([3]; 5 μM to 15 μM): high levels of toxicity; Cell Death (%) vs Vehicle Control [3]: promote cell death; toxicity in primary screen ([3]; about 0.5 μM to 1.5 μM): high levels of toxicity

Q: With “Aβ1-42: Amyloid-beta (Aβ1-42) peptide, insult-inducing cytotoxic agent” as the compound, how does the neurite morphology [5] read?
A: Its neurite morphology is “damaged neurite outgrowth”.

Q: And the BAX expression [6]?
A: The BAX expression was “induced upregulation”.

Q: What about the BCL2 expression [7] of the same compound?
A: The BCL2 expression was “downregulation”.

Q: What about the cytotoxicity ([3]; Aβ1-42 insult alone at 5 μM, 24 hrs, FIG. 7) of the same compound?
A: Its cytotoxicity is 23-52%.

Q: Which results are given for CCCCCc1cc(O)c2c(c1)OC(C)(C)c1ccc(C)cc1-2 [CBN, cannabinol]?
A: neuroprotection against STSR-induced cytotoxicity [1]: did not protect; Cell Death (%) vs STSR at 75 nM, significance [1]: statistically significant cytotoxicity; CB1R expression and translocation [8]: did not alter the expression of CB1R; neurite length [9]: significantly decreased the neurite length; toxicity in primary screen ([3]; 5 μM to 15 μM): high levels of toxicity; Cell Death (%) vs Vehicle Control [3]: promote cell death; neuronal morphology and neurite outgrowth, TuJ1 staining [10]: loss of neurite outgrowth and elongation

Q: With CCCCCc1cc(O)c2c(c1)OC(C)(CCC=C(C)C)C=C2 (stereo not drawn) [CBC, cannabichromene] as the compound, how does the “toxicity in primary screen” value ([3]; 5 μM to 15 μM) read?
A: The value was “high levels of toxicity”.

Q: What about the “Cell Death (%) vs Vehicle Control” value [3] of the same compound?
A: The value was “promote cell death”.

Q: What about the “toxicity in primary screen” value ([3]; about 0.5 μM to 1.5 μM) of the same compound?
A: The value was “high levels of toxicity”.

Q: CCCCCc1cc(O)c2c(c1)OC(C)(C)[C@@H]1CCC(C)=C[C@@H]21 [Δ9-THC, Δ^9-tetrahydrocannabinol] was tested. Which “CB1R expression and translocation” value [8] did it give?
A: Its value is “did not alter the expression of CB1R”.

Q: And the neurite length [9]?
A: The neurite length was “significantly decreased the neurite length”.

Q: And the “toxicity in primary screen” value ([3]; 5 μM to 15 μM)?
A: Its value is “high levels of toxicity”.

Q: And the “Cell Death (%) vs Vehicle Control” value [3]?
A: Its value is “promote cell death”.

Q: What about the “toxicity in primary screen” value ([3]; about 0.5 μM to 1.5 μM) of the same compound?
A: Its value is “high levels of toxicity”.

Q: What about the “neuronal morphology and neurite outgrowth, TuJ1 staining” value [10] of the same compound?
A: Its value is “disrupted neuronal morphology and neurite outgrowth”.

Q: Which cell death ([3]; STSR 75 nM, 72 hrs, vs vehicle control, FIG. 2) does the source give for CN[C@@H]1C[C@H]2O[C@@](C)([C@@H]1OC)n1c3ccccc3c3c4c(c5c6ccccc6n2c5c31)C(=O)NC4 [STSR, Staurosporin] here?
A: The cell death was about 34%.

Q: And the cell death ([3]; STSR 200 nM, 72 hrs, vs vehicle control, FIG. 2)?
A: Its cell death is about 66%.

Q: And the cell death ([3]; STSR-insult alone at 75 nM, FIG. 5)?
A: The cell death was about 48%.

Q: With C=C(C)[C@@H]1CCC(C)=C[C@H]1c1c(O)cc(CCCCC)c(C(=O)O)c1O [CBDA, cannabidiolic acid] as the compound, how does the “toxicity in primary screen” value ([3]; 5 μM to 15 μM) read?
A: Its value is “high levels of toxicity”.

Q: What about the “Cell Death (%) vs Vehicle Control” value [3] of the same compound?
A: The value was “promote cell death”.

Q: What about the “toxicity in primary screen” value ([3]; about 0.5 μM to 1.5 μM) of the same compound?
A: The value was “high levels of toxicity”.
